The record followed here is ChEMBL document CHEMBL1122400, “A deuterium isotope effect on the inhibition of gastric secretion by N,N-dimethyl-N'-[2-(diisopropylamino)ethyl]-N'-(4,6-dimethyl-2-pyridyl)urea. Synthesis of metabolites” (1983).

Structures are written as SMILES.

This assay has as its system Canis familiaris. In words: Inhibition of gastric acid secretion in dogs stimulated by gastrin tetrapeptide when administered perorally. It is filed as functional. The conditions noted are these: Canis lupus familiaris, Stomach, po.
For `[2H]C([2H])([2H])c1cc(C)nc(N(CCN(C(C)C)C(C)C)C(=O)N(C)C)c1`, the ED50 (commonly the dose at which the effect has come halfway, by size or by number of responders) was determined as 7.26 µmol/kg. Regarding `Cc1cc(CO)nc(N(CCN(C(C)C)C(C)C)C(=O)N(C)C)c1`, it took a dose of 29.4 µmol/kg to reach the 50% effect level (ED50).

For `Cc1cc(CO)cc(N(CCN(C(C)C)C(C)C)C(=O)N(C)C)n1`, it took a dose of 23.3 µmol/kg to reach the 50% effect level (ED50). Then `Cc1cc(C)nc(N(CCN(C(C)C)C(C)C)C(=O)N(C)C)c1`, with 15.3 µmol/kg; and `CC(C)N(CCN(C(=O)N(C)C)c1cc(C(F)(F)F)cc(C(F)(F)F)n1)C(C)C`, with 43.9 µmol/kg; and `CN/C(=N\CCSCc1nc[nH]c1C)NC#N` [CIMETIDINE], with 14.3 µmol/kg.
